Source: patent US20040248887A1, “Inhibitors of cathepsin S” (IRM LLC, priority 2003, published 2004)

Molecular target: Cathepsin S (Homo sapiens, UniProt P25774)
Assay: Cathepsin S inhibition, fluorogenic peptide substrate kinetic assay
Assay type: biochemical
Details: Table II; Cathepsin S inhibition constant, pH5.5; read-out: Ki Cat. S
Source text: “Inhibition constant”, Ki, is the dissociation constant of the enzyme-inhibitor complex, or the reciprocal of the binding affinity of the inhibitor to the enzyme. […] The inhibited rates are then fit by nonlinear regression to the following equation: [formula]
where vo is the initial rate of substrate processing in the absence of inhibitor, v; is the initial rate of substrate processing at a concentration [I] of inhibitor, Km is the steady state Michaelis constant (Fersht, A. Structure and Mechanism in Protein Science. New York, W.H. Freeman and Company, 1999), and [S] is the concentration of competitive substrate.
The assumption being made for the classical inhibition described above is that the free inhibitor concentration is equal to the total inhibitor concentration.
The inhibition constant, Ki, can be determined from the apparent inhibition constant, Ki^app, for competitive inhibitors by using the following relationship: [formula]
The optimal substrate for cathepsin S, acetyl-histidine-proline-valine-lysine-amino carbamoyl coumarin, was identified from screening a combinatorial library of fluorogenic peptide substrates (Harris, J. L., B. J. Backes, et al., Proc Natl Acad Sci USA 2000, 97(14), 7754-9). Kinetic measurements are performed in a total reaction volume of 30 μl in 384-well microtiter plates. […] The reactions are initiated by adding the substrate, acetyl-histidine-proline-valine-lysine-amino carbamoyl coumarin, to a final concentration of 50 μM. The rate of substrate hydrolysis is measured by monitoring the increase in fluorescence at an excitation wavelength of 380 nm and an emission wavelength of 450 nm that results from cleavage of the aniline bond in the substrate by the enzyme. The apparent inhibition constants for the compounds are determined from the enzyme progress curves (Kuzmic, P., K. C. Elrod, et al., Anal Biochem 2000, 286(1), 45-50) and are then used to calculate the inhibition constants for competitive inhibitors.

Chain of Cathepsin S (P25774 115-331, species assumed): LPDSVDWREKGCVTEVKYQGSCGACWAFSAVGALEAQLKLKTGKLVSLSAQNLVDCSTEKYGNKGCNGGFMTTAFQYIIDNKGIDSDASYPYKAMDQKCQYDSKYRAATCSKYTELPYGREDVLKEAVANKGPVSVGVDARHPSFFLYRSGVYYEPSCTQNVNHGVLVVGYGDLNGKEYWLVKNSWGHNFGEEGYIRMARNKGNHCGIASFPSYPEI

Row | Compound | Ki
1 | COCC(=O)N[C@@H](CC1CCCCC1)C(=O)N[C@@H](C)CNc1ccc(OC(F)(F)F)cc1 [Compound 124, 3-Cyclohexyl-2-(S)-(2-methoxy-acetylamino)-N-[1-(S)-methyl-2-(4-trifluoromethoxy-phenylamino)-ethyl]-propionamide] | < 100 nM
2 | COc1ccc(S(=O)(=O)N2CCC(C(=O)N[C@@H](CC3CCCCC3)C(=O)NCCN3CCc4cc(F)ccc43)CC2)cc1 [Compound 57, 1-(4-Methoxy-benzenesulfonyl)-piperidine-4-carboxylic acid (S)-{2-cyclohexyl-1-[2-(5-fluoro-2,3-dihydro-indol-1-yl)-ethylcarbamoyl]-ethyl}-amide] | < 1000 nM
3 | C[C@@H](CNc1ccc(OC(F)(F)F)cc1)NC(=O)[C@H](CC1CCCCC1)NC(=O)[C@@H]1CCCO1 [Compound 29, Tetrahydrofuran-2-(S)-carboxylic acid {2-cyclohexyl-1-(S)-[1-(S)-methyl-2-(4-trifluoromethoxy-phenylamino)-ethylcarbamoyl]-ethyl}-amide] | < 100 nM
4 | O=C(N[C@@H](CC1CCCCC1)C(=O)N[C@@H](COCc1ccccc1)CN1CCc2cc(F)ccc21)c1ccc(-c2cccc(C(F)(F)F)c2)o1 [Compound 152, 5-(3-Trifluoromethyl-phenyl)-furan-2-carboxylic acid {1-(S)-[1-(R)-benzyloxymethyl-2-(5-fluoro-2,3-dihydro-indol-1-yl)-ethylcarbamoyl]-2-cyclohexyl-ethyl}-amide] | < 100 nM
5 | O=C(N[C@@H](CC1CCCC1)C(=O)NCCN1CCc2cc(F)ccc21)c1ccc(-c2cccc(C(F)(F)F)c2)o1 [Compound 200, N-((S)-1-(2-(5-fluoroindolin-1-yl)ethylcarbamoyl)-2-cyclopentylethyl)-5-(3-(trifluoromethyl)phenyl)furan-2-carboxamide] | < 100 nM
6 | C[C@@H](CNc1ccc(C#N)cc1)NC(=O)[C@H](CC1CCCCC1)NC(=O)c1ccc(-c2cccc(F)c2)o1 [Compound 93, 5-(3-Fluoro-phenyl)-furan-2-carboxylic acid {1-(S)-[2-(4-cyano-phenylamino)-1-(S)-methyl-ethylcarbamoyl]-2-cyclohexyl-ethyl}-amide] | < 1000 nM
7 | CC[C@@H](C(=O)N[C@@H](CC1CCCCC1)C(=O)NCCN1CCc2cc(F)ccc21)c1ccccc1 [Compound 148, N-{2-cyclohexyl-1-(S)-[2-(5-fluoro-2,3-dihydro-indol-1-yl)-ethylcarbamoyl]-ethyl}-2-(R)-phenyl-butyramide] | < 100 nM
8 | Cc1cccc(C(=O)N[C@@H](Cc2ccc(Cl)cc2)C(=O)NCCN2CCc3cc(F)ccc32)c1 [Compound 199, N-((S)-1-(2-(5-fluoroindolin-1-yl)ethylcarbamoyl)-2-(4-chlorophenyl)ethyl)-3-methylbenzamide] | < 100 nM
9 | O=C(N[C@@H](CC1CCCCC1)C(=O)NCCN1CCc2cc(F)ccc21)C1CC(=O)N(Cc2cccs2)C1 (stereo partly drawn) [Compound 73, 5-Oxo-1-thiophen-2-ylmethyl-pyrrolidine-3-carboxylic acid (S)-{2-cyclohexyl-1-[2-(5-fluoro-2,3-dihydro-indol-1-yl)-ethylcarbamoyl]-ethyl}-amide] | < 100 nM
10 | C[C@@H](CNc1ccc(S(C)(=O)=O)cc1)NC(=O)[C@H](CC1CCCCC1)NC(=O)c1ccc(-c2ccc(F)cc2)o1 [Compound 107, 5-(4-Fluoro-phenyl)-furan-2-carboxylic acid {2-cyclohexyl-1-(S)-[2-(4-methanesulfonyl-phenylamino)-1-(S)-methyl-ethylcarbamoyl]-ethyl}-amide] | < 100 nM
11 | COc1cccc(C(=O)N[C@@H](CC(C)(C)C)C(=O)N[C@@H](Cc2nnn[nH]2)CN2CCc3cc(F)ccc32)c1 [Compound 166, N-{1-(S)-[2-(5-Fluoro-2,3-dihydro-indol-1-yl)-1-(S)-(1H-tetrazol-5-ylmethyl)-ethylcarbamoyl]-3,3-dimethyl-butyl}-3-methoxy-benzamide] | < 100 nM
12 | C[C@@H](CNc1cccc(Cl)c1F)NC(=O)[C@H](CC1CCCCC1)NC(=O)c1ccc(-c2cccc(F)c2)o1 [Compound 96, 5-(3-Fluoro-phenyl)-furan-2-carboxylic acid {1-(S)-[2-(3-chloro-2-fluoro-phenylamino)-1-(S)-methyl-ethylcarbamoyl]-2-cyclohexyl-ethyl}-amide] | < 1000 nM
13 | COc1ccc(NC(C)CNC(=O)[C@H](CC(C)C)NC(=O)c2cccc(C)c2)cc1 (mixture of isomers) [Compound 20, N-{1-(S)-[2-(4-Methoxy-phenylamino)-propylcarbamoyl]-3-methyl-butyl}-3-methyl-benzamide] | < 10000 nM
14 | COc1cccc(C(=O)N[C@@H](CCC2CCCCC2)C(=O)NCCN2CCc3cccc(OC)c32)c1 [Compound 8, (S)-N-{3-Cyclohexyl-1-[2-(7-methoxy-2,3-dihydro-indol-1-yl)-ethylcarbamoyl]-propyl}-3-methoxy-benzamide] | < 10000 nM

The next lines start with the values.

Row | Ki | Compound
15 | < 1000 nM | O=C(N[C@@H](Cc1ccccc1)C(=O)NCCN1CCc2cc(F)ccc21)c1ccc(-c2cccc(C(F)(F)F)c2)o1 [Compound 206, N-((S)-1-(2-(5-fluoroindolin-1-yl)ethylcarbamoyl)-2-phenylethyl)-5-(3-(trifluoromethyl)phenyl)furan-2-carboxamide]
16 | < 1000 nM | O=C(N[C@H](C(=O)N[C@H](CO)CN1CCc2cc(F)ccc21)c1ccc(Cl)cc1Cl)c1ccc(F)c(F)c1 [Compound 214, (S,S)-N-((3-(5-fluoroindolin-1-yl)-1-hydroxypropan-2-ylcarbamoyl)(2,4-dichlorophenyl)methyl)-3,4-difluorobenzamide]
17 | < 100 nM | C[C@@H](CN1CC(C)(C)c2cc(F)ccc21)NC(=O)[C@H](CC1CCCCC1)NC(=O)O[C@H]1CCOC1 [Compound 217, (S,S)-{2-Cyclohexyl-1-[2-(5-fluoro-3,3-dimethyl-2,3-dihydro-indol-1-yl)-1-methyl-ethylcarbamoyl]-ethyl}-carbamic acid (S)-tetrahydro-furan-3-yl ester]
18 | < 100 nM | COc1cccc(C(=O)N[C@@H](CC(C)(C)C)C(=O)N[C@@H](CC#N)CN2CCc3cc(F)ccc32)c1 [Compound 165, N-{1-(S)-[2-Cyano-1-(S)-(5-fluoro-2,3-dihydro-indol-1-ylmethyl)-ethylcarbamoyl]-3,3-dimethyl-butyl}-3-methoxy-benzamide]
19 | < 1000 nM | Cc1cccc(C(=O)N[C@@H](Cc2ccccc2Cl)C(=O)NCCN2CCc3cc(F)ccc32)c1 [Compound 195, N-((S)-1-(2-(5-fluoroindolin-1-yl)ethylcarbamoyl)-2-(2-chlorophenyl)ethyl)-3-methylbenzamide]
20 | < 1000 nM | CS(=O)(=O)N1CCC(C(=O)N[C@@H](CC2CCCCC2)C(=O)NCCN2CCc3cc(F)ccc32)CC1 [Compound 77, 1-Methanesulfonyl-piperidine-4-carboxylic acid (S)-{2-cyclohexyl-1-[2-(5-fluoro-2,3-dihydro-indol-1-yl)-ethylcarbamoyl]-ethyl}-amide]
21 | < 100 nM | C[C@@H](CNc1ccc(OC(F)F)cc1)NC(=O)[C@H](CC(C)(C)C)NC(=O)c1ccc(-c2cccc(F)c2)o1 [Compound 128, 5-(3-Fluoro-phenyl)-furan-2-carboxylic acid {1-(S)-[2-(4-difluoromethoxy-phenylamino)-1-(S)-methyl-ethylcarbamoyl]-3,3-dimethyl-butyl}-amide]
22 | < 100 nM | C[C@@H](CN1CCc2cc(F)ccc21)NC(=O)[C@H](CC1CCCCC1)NS(=O)(=O)c1cccc(OC(F)(F)F)c1 [Compound 254, (S,S)-3-Cyclohexyl-N-[2-(5-fluoro-2,3-dihydro-indol-1-yl)-1-methyl-ethyl]-2-(3-trifluoromethoxy-benzenesulfonylamino)-propionamide]
23 | < 1000 nM | C[C@@H](CNc1ccc(C(=N)N)cc1)NC(=O)C(NC(=O)c1ccc(OCc2ccccc2)cc1)c1ccc(Cl)cc1Cl (mixture of isomers) [Compound 175, 4-Benzyloxy-N-(R,S)-{[2-(4-amidinophenylamino)-1-(S)-methyl-ethylcarbamoyl]-(2,4-dichloro-phenyl)-methyl}-benzamide]
24 | < 10000 nM | COc1cccc(C(=O)N[C@@H](CCC2CCCCC2)C(=O)NCCN2CCc3cc(OC)ccc32)c1 [Compound 16, (S)-N-{3-Cyclohexyl-1-[2-(5-methoxy-2,3-dihydro-indol-1-yl)-ethylcarbamoyl]-propyl}-3-methoxy-benzamide]
25 | < 100 nM | C[C@@H](CNc1ccc(OC(F)(F)F)cc1)NC(=O)[C@H](CC1CCCCC1)NC(=O)c1nc(-c2ccc(F)cc2)no1 [Compound 109, 3-(4-Fluoro-phenyl)-[1,2,4]oxadiazole-5-carboxylic acid {2-cyclohexyl-1-(S)-[1-(S)-methyl-2-(4-trifluoromethoxy-phenylamino)-ethylcarbamoyl]-ethyl}-amide]
26 | < 100 nM | C[C@@H](CNc1cccc(OC(F)(F)F)c1)NC(=O)[C@H](CC1CCCCC1)NC(=O)c1ccc(-c2cccc(F)c2)o1 [Compound 111, 5-(3-Fluoro-phenyl)-furan-2-carboxylic acid {2-cyclohexyl-1-(S)-[1-(S)-methyl-2-(3-trifluoromethoxy-phenylamino)-ethylcarbamoyl]-ethyl}-amide]
